According to the Kinase Knowledgebase extract (Sharma et al. 2016):

Experiments:
[1] = target: EGFR (UniProt P00533)
[2] = target: EGFR (human) (UniProt P00533); settings: A431
[3] = target: EGFR (human) (UniProt P00533); settings: a431
[4] = target: EGFR (mouse) (UniProt P00533); settings: balb/mk cells
[5] = target: EGFR (human) (UniProt P00533); settings: for inhibition: a431, concentration not given here
[6] = target: EGFR (human) (UniProt P00533); settings: A431; remark: listed apart in the source
[7] = target: EGFR (UniProt P00533); remark: listed apart in the source
[8] = target: EGFR (UniProt P00533); remark: listed apart in the source

Chain of EGFR (human) (P00533 whole entry, looked up): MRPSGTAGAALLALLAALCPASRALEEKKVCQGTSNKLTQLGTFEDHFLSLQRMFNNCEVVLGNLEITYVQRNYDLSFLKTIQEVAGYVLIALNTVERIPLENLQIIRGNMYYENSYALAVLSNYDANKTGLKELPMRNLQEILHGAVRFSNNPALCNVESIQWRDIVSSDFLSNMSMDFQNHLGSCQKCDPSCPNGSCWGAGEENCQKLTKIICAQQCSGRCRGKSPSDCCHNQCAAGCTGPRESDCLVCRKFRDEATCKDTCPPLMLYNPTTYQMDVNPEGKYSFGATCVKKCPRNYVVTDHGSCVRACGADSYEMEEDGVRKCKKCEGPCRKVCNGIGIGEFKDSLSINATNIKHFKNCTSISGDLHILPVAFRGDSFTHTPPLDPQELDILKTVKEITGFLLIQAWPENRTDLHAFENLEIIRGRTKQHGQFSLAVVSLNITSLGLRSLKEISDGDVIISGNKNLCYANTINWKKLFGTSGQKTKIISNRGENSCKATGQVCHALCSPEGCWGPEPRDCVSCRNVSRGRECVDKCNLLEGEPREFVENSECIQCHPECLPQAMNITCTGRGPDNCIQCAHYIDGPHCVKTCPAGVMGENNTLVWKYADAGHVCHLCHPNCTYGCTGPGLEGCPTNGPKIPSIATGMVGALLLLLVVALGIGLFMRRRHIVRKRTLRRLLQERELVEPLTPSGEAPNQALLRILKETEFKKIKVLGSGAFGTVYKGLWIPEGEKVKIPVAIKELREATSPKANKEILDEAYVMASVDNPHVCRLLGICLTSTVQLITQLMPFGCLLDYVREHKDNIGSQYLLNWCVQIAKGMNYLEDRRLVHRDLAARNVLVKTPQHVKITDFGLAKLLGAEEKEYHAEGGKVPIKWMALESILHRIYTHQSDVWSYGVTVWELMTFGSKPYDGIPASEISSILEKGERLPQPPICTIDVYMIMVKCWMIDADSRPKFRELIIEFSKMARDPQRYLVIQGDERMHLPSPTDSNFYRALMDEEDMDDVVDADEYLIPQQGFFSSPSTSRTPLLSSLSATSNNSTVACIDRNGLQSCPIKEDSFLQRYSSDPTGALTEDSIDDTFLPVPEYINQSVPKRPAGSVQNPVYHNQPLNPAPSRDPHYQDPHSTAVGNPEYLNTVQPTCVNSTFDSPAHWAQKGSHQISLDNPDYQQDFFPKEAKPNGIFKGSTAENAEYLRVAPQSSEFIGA
Chain of EGFR (P00533 whole entry, looked up): as above

| Compound | IC50 [2] | IC50 [3] | IC50 [4] | inhibition [5] | further results |
| --- | --- | --- | --- | --- | --- |
| CCOc1cc(/C=C(/C#N)C(N)=O)cc(Cc2ccccc2)c1O | 9 µM |  |  |  | IC50 [1]: 1 µM; Ki [1]: 2.1 µM |
| C=C(C)CN1C(=O)C(C)SC1=NN=C1SCC(=O)N1C (centres undefined) | > 50 µM | > 50 µM | > 50 µM | 0% |  |
| C=CCN1C(=O)C(C)SC1=NN=C1SCC(=O)N1C (centres undefined) | > 50 µM | > 50 µM | > 50 µM | 0% |  |
| O=CN/C=C/c1cc(O)ccc1O | 12.7 µM |  |  |  | Ki [7]: 6 µM |
| N#CC(C#N)=Cc1cc(O)cc(O)c1 | 42 µM |  |  |  | IC50 [8]: 35 µM; Ki [8]: 11 µM |
| C=C(C)CN1C(=O)C(OS(=O)(=O)O)SC1=NN=C1SCC(=O)N1C (centres undefined) | 100 µM | > 50 µM | > 50 µM | 0% |  |
| CC(=S)N/C(C#N)=C/c1ccc(O)c(O)c1 |  |  |  |  | IC50 [8]: 2.4 µM; Ki [8]: 0.85 µM |

Second part, led by results:

| IC50 [2] | IC50 [3] | IC50 [4] | inhibition [5] | Compound | further results |
| --- | --- | --- | --- | --- | --- |
| > 100 µM | > 50 µM | > 50 µM | 0% | C=C(C)CN1C(=O)C(O)SC1=NN=C1SCC(=O)N1C (centres undefined) |  |
| 6 µM | 1.51 µM | 1.03 µM |  | C=CCN1C(=O)C(=C)SC1=NN=C1SCC(=O)N1C |  |
| 2 µM | 1.63 µM | 0.98 µM |  | C=C(C)CN1C(=O)C(CN(C)C)SC1=NN=C1SCC(=O)N1C (centres undefined) |  |
| > 50 µM | > 50 µM | > 50 µM | 0% | C=C(C)CN1C(=O)CSC1=NN=C1SCC(=O)N1C |  |
| 1 µM | 1.55 µM | 1 µM |  | C=C(C)CN1C(=O)C(=C)SC1=NN=C1SCC(=O)N1C | IC50 [6]: 5 µM; IC50 ([5]; a431): 12.5 to 25 µM |
| > 50 µM | 41 µM | > 50 µM | 0% | C=C(C)CN1C(=O)C(CO)SC1=NN=C1SCC(=O)N1C (centres undefined) |  |
| > 100 µM | > 50 µM | > 50 µM | 0% | C=CCN1C(=O)C(CC(=O)O)SC1=NN=C1SCC(=O)N1C (centres undefined) |  |
